PMC4232042 (Drug Design, Development and Therapy, 2014)

Target: Kv1.5 (Homo sapiens, UniProt P22460)
Test: whole-cell patch clamp in HEK […] cells stably expressing Kv1.[…]
Type: cell-based

Kv1.5, sequence (P22460 whole entry): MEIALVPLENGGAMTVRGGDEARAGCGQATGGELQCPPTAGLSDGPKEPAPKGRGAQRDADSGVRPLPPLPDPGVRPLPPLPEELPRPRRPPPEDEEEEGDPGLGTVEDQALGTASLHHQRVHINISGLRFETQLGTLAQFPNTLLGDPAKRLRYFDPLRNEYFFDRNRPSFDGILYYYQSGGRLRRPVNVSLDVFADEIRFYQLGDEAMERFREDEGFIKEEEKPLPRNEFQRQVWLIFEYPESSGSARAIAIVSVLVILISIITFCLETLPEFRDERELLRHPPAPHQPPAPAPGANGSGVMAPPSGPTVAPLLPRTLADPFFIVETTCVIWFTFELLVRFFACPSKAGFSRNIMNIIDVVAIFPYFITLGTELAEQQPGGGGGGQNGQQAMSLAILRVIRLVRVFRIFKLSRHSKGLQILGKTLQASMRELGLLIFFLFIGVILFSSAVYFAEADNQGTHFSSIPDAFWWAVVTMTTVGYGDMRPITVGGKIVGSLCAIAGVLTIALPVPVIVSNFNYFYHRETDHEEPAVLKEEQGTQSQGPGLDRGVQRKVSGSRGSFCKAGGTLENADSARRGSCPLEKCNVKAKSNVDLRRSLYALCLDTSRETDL

Cc1ncc2n1-c1ccc(Cl)cc1C(c1ccccc1F)=NC2 [midazolam]
IC50: 17 ± 4.2 µM
